Measured values taken from ChEMBL document CHEMBL3885881, “DrugMatrix”.

Organism: Rattus norvegicus
Assay: DrugMatrix - Regimen: Daily Repeat
Type: toxicity, organism-based, Sprague-Dawley
Parameters: regimen Daily Repeat, gender Male, age 6-8 weeks
Details: in vivo, po, route oral GAVAGE, […]; for ABSOLUTE BASOPHIL / ABSOLUTE EOSINOPHIL / ABSOLUTE LYMPHOCYTE / ABSOLUTE MONOCYTE / ABSOLUTE SEGMENTED NEUTROPHIL / BASOPHIL / EOSINOPHIL / ERYTHROCYTE COUNT / HEMATOCRIT / HEMOGLOBIN / LEUKOCYTE COUNT / LYMPHOCYTE / MEAN CORPUSCULAR HEMOGLOBIN / MEAN CORPUSCULAR HEMOGLOBIN CONCENTRATION / MEAN CORPUSCULAR VOLUME / MONOCYTE / NEUTROPHIL / NUCLEATED RED BLOOD CELLS / PLATELET COUNT: tissue Blood; for ALANINE AMINOTRANSFERASE / ALBUMIN / ALKALINE PHOSPHATASE / ASPARTATE AMINOTRANSFERASE / BLOOD UREA NITROGEN / CARBON DIOXIDE / CHLORIDE / CHOLESTEROL / CREATINE PHOSPHOKINASE / CREATININE / GLUCOSE / LACTATE DEHYDROGENASE / LIPASE / PHOSPHORUS / POTASSIUM / SODIUM / TOTAL BILIRUBIN / TOTAL PROTEIN / URIC ACID: tissue Plasma
[1] = 0 mg/kg, 72 h, dose level Control, time 3 day
[2] = 0 mg/kg, 120 h, dose level Control, time 5 day
[3] = 100 mg/kg, 72 h, dose level Low, time 3 day

In the case of `CCCC[C@@H](CC)COC(=O)c1ccccc1C(=O)OC[C@@H](CC)CCCC` [BIS(2-ETHYLHEXYL)PHTHALATE], the “ABSOLUTE BASOPHIL” value [1] is reported as 0 CELLS/uL, the “ABSOLUTE EOSINOPHIL” value [1] is reported as 13.67 CELLS/uL and the “ABSOLUTE LYMPHOCYTE” value [1] is reported as 10069.5 CELLS/uL. The “ABSOLUTE MONOCYTE” value [1] was 50 CELLS/uL, the “ABSOLUTE SEGMENTED NEUTROPHIL” value [1] was 516.83 CELLS/uL and the BASOPHIL [1] was 0%. For the same compound, the EOSINOPHIL [1] was 0.17%, the “ERYTHROCYTE COUNT” value [1] was 5.44 x10E6/uL and the HEMATOCRIT [1] was 33.88%. For the same compound, the HEMOGLOBIN [1] was 13.23 G/DL, the “LEUKOCYTE COUNT” value [1] was 10.65 x10E3/uL and the LYMPHOCYTE [1] was 94.67%. For the same compound, the “MEAN CORPUSCULAR HEMOGLOBIN” value [1] was 24.37 pg, the “MEAN CORPUSCULAR HEMOGLOBIN CONCENTRATION” value [1] was 39.05 G/DL and the “MEAN CORPUSCULAR VOLUME” value [1] was 62.38 fL. For the same compound, the MONOCYTE [1] was 0.67%, the NEUTROPHIL [1] was 4.5% and the “NUCLEATED RED BLOOD CELLS” value [1] was 0.33 /100WBC. For the same compound, the “PLATELET COUNT” value [1] was 414.5 x10E3/uL, the “ALANINE AMINOTRANSFERASE” value [1] was 72 u/L and the ALBUMIN [1] was 3.75 G/DL. The “ALKALINE PHOSPHATASE” value [1] was 375 u/L, the “ASPARTATE AMINOTRANSFERASE” value [1] was 87.5 u/L and the “BLOOD UREA NITROGEN” value [1] was 14 mg/dL. For the same compound, the “CARBON DIOXIDE” value [1] was 27.5 mmol/L, the CHLORIDE [1] was 95.83 MEQ/L and the CHOLESTEROL [1] was 68.5 mg/dL. For the same compound, the “CREATINE PHOSPHOKINASE” value [1] was 284.33 u/L, the CREATININE [1] was 0.16 mg/dL and the GLUCOSE [1] was 156.67 mg/dL. For the same compound, the “LACTATE DEHYDROGENASE” value [1] was 101.83 u/L, the LIPASE [1] was 9.67 u/L and the PHOSPHORUS [1] was 10.33 mg/dL. The POTASSIUM [1] was 5.22 MEQ/L, the SODIUM [1] was 137.67 MEQ/L and the “TOTAL BILIRUBIN” value [1] was 0.13 mg/dL. The “TOTAL PROTEIN” value [1] was 5.43 G/DL, the “URIC ACID” value [1] was 0.8 mg/dL and the “ABSOLUTE BASOPHIL” value [2] was 0 CELLS/uL. The “ABSOLUTE EOSINOPHIL” value [2] was 20.67 CELLS/uL, the “ABSOLUTE LYMPHOCYTE” value [2] was 11518.33 CELLS/uL and the “ABSOLUTE MONOCYTE” value [2] was 47 CELLS/uL. The “ABSOLUTE SEGMENTED NEUTROPHIL” value [2] was 614 CELLS/uL, the BASOPHIL [2] was 0% and the EOSINOPHIL [2] was 0.17%. For the same compound, the “ERYTHROCYTE COUNT” value [2] was 5.61 x10E6/uL, the HEMATOCRIT [2] was 34.25% and the HEMOGLOBIN [2] was 13.38 G/DL. For the same compound, the “LEUKOCYTE COUNT” value [2] was 12.2 x10E3/uL, the LYMPHOCYTE [2] was 94.33% and the “MEAN CORPUSCULAR HEMOGLOBIN” value [2] was 23.83 pg. For the same compound, the “MEAN CORPUSCULAR HEMOGLOBIN CONCENTRATION” value [2] was 39.08 G/DL, the “MEAN CORPUSCULAR VOLUME” value [2] was 61.03 fL and the MONOCYTE [2] was 0.33%. For the same compound, the NEUTROPHIL [2] was 5.17%, the “NUCLEATED RED BLOOD CELLS” value [2] was 0 /100WBC and the “PLATELET COUNT” value [2] was 941.83 x10E3/uL. For the same compound, the “ALANINE AMINOTRANSFERASE” value [2] was 68.83 u/L, the ALBUMIN [2] was 4.12 G/DL and the “ALKALINE PHOSPHATASE” value [2] was 492.67 u/L. The “ASPARTATE AMINOTRANSFERASE” value [2] was 83.33 u/L, the “BLOOD UREA NITROGEN” value [2] was 14 mg/dL and the “CARBON DIOXIDE” value [2] was 37 mmol/L. For the same compound, the CHLORIDE [2] was 98.67 MEQ/L, the CHOLESTEROL [2] was 56.5 mg/dL and the “CREATINE PHOSPHOKINASE” value [2] was 167.33 u/L. For the same compound, the CREATININE [2] was 0.17 mg/dL, the GLUCOSE [2] was 157.5 mg/dL and the “LACTATE DEHYDROGENASE” value [2] was 104.83 u/L. It also gave an LIPASE [2] of 10 u/L, a PHOSPHORUS [2] of 10.43 mg/dL and a POTASSIUM [2] of 5.46 MEQ/L. For the same compound, the SODIUM [2] was 143.87 MEQ/L, the “TOTAL BILIRUBIN” value [2] was 0.17 mg/dL and the “TOTAL PROTEIN” value [2] was 5.72 G/DL. For the same compound, the “URIC ACID” value [2] was 0.85 mg/dL, the “ABSOLUTE BASOPHIL” value [3] was 0 CELLS/uL and the “ABSOLUTE EOSINOPHIL” value [3] was 23 CELLS/uL. The “ABSOLUTE LYMPHOCYTE” value [3] was 7479.67 CELLS/uL, the “ABSOLUTE MONOCYTE” value [3] was 44.67 CELLS/uL and the “ABSOLUTE SEGMENTED NEUTROPHIL” value [3] was 819.33 CELLS/uL. For the same compound, the BASOPHIL [3] was 0%, the EOSINOPHIL [3] was 0.33% and the “ERYTHROCYTE COUNT” value [3] was 5.6 x10E6/uL. The HEMATOCRIT [3] was 35.03%, the HEMOGLOBIN [3] was 13.73 G/DL and the “LEUKOCYTE COUNT” value [3] was 8.37 x10E3/uL. For the same compound, the LYMPHOCYTE [3] was 89%, the “MEAN CORPUSCULAR HEMOGLOBIN” value [3] was 24.5 pg and the “MEAN CORPUSCULAR HEMOGLOBIN CONCENTRATION” value [3] was 39.17 G/DL. For the same compound, the “MEAN CORPUSCULAR VOLUME” value [3] was 62.6 fL, the MONOCYTE [3] was 0.67% and the NEUTROPHIL [3] was 10%. The “NUCLEATED RED BLOOD CELLS” value [3] was 0 /100WBC, the “PLATELET COUNT” value [3] was 750.33 x10E3/uL and the “ALANINE AMINOTRANSFERASE” value [3] was 89.33 u/L. The ALBUMIN [3] was 3.97 G/DL, the “ALKALINE PHOSPHATASE” value [3] was 408.33 u/L and the “ASPARTATE AMINOTRANSFERASE” value [3] was 88.67 u/L. The “BLOOD UREA NITROGEN” value [3] was 14 mg/dL, the “CARBON DIOXIDE” value [3] was 26.67 mmol/L and the CHLORIDE [3] was 96 MEQ/L. For the same compound, the CHOLESTEROL [3] was 60 mg/dL, the “CREATINE PHOSPHOKINASE” value [3] was 210.67 u/L and the CREATININE [3] was 0.11 mg/dL. For the same compound, the GLUCOSE [3] was 148.33 mg/dL, the “LACTATE DEHYDROGENASE” value [3] was 81 u/L and the LIPASE [3] was 10.33 u/L. The PHOSPHORUS [3] was 10 mg/dL, the POTASSIUM [3] was 5.11 MEQ/L and the SODIUM [3] was 138.1 MEQ/L. The “TOTAL BILIRUBIN” value [3] was 0.17 mg/dL, the “TOTAL PROTEIN” value [3] was 5.5 G/DL and the “URIC ACID” value [3] was 0.63 mg/dL.
